Source: patent US11667678B2, “Peptides for the treatment of COVID-19” (priority 2019, dated 2023)
Peptide text beside a SMILES is read from it.

Columns and labels:
[1] = system: human A549 lung cells stimulated with HIV-1 Tat; type: cell-based
[2] = system: human A549 lung cells stimulated with poly IC; type: cell-based
[3] = system: human A549 lung cells stimulated with recombinant SARS-CoV-2 spike S1; type: cell-based
[4] = system: human A549 lung cells stimulated with bacterial flagellin; type: cell-based
[5] = target: ACE2:SARS-CoV-2 spike S1 binding (UniProt P0DTC2+Q9BYF1)
[6] = system: SARS-CoV-2 spike S1-intoxicated C57/BL6 mice; conditions: mouse, in vivo
[7] = system: control mice; conditions: mouse, in vivo
[8] = system: SARS-CoV-2 spike S1-intoxicated C57/BL6 mice; conditions: mouse, in vivo; remark: listed apart in the source
[9] = system: human A549 lung cells stimulated with recombinant SARS-CoV-2 spike S1; conditions: 'See herein and Paidi et al.'; cited from earlier work

Molecule	expression of IL-6 and IL-1β induced by HIV-1 Tat [1]	expression of IL-6 and IL-1β induced by poly IC [2]	SARS-CoV-2 spike S1-mediated induction of IL-6 and IL-1β (mRNA) [3]	expression of IL-6 and IL-1β induced by flagellin [4]	SARS-CoV-2 spike S1 binding to immobilized ACE2 [5]	body temperature (fever) [6]	level of IL-6 mRNA and protein as well as IL-1β mRNA in lungs [6]	level of serum IL-6 [6]	lung neutrophil infiltration [6]	drug-related side effect (hair loss, appetite loss, weight loss, untoward infection and irritation) [7]	arrhythmias (ECG heart functions) [8]	fever (body temperature) [8]	infiltration of neutrophils into the lungs [8]	level of proinflammatory molecules in lungs and serum [8]	locomotor activities [8]	serum level of C-reactive protein (CRP) [8]	SARS-CoV-2 spike S1-induced expression of proinflammatory cytokines [9]
TGGVGD (mAIDS peptide)	had no effect	had no effect	had no effect	had no effect	no such inhibition	no such inhibitory effect	no such inhibitory effect	no such inhibitory effect	no such inhibitory effect								
CC(C)[C@H](NC(=O)CNC(=O)[C@H](CC(N)=O)NC(=O)[C@@H](N)[C@@H](C)O)C(=O)NCC(=O)N[C@@H](Cc1ccc(O)cc1)C(=O)O [wtAIDS, TNGVGY] (H-TNGVGY-OH)										did not notice any drug-related side effect							
EDLFYQ (SPIDAR peptide) [wtSPIDAR]					Inhibition						reduced arrhythmias	reduced fever	attenuated	decreased	improved locomotor activities	normalized	markedly suppresses
